In patent publication US6461997B1, “Triazole sulfones having herbicidal activity” (Monsanto Technology LLC, priority 1999, dated 2002):

Key:
[1] = tested on: IPOSS (annual morningglory); assay: Pre-plant incorporated (PPI) herbicidal activity, warm season; format: in vivo, Ipomoea spp.; conditions: PPI application
Experimental: (§1) In another set of tests, the pre-plant incorporated (PPI) activity of compounds of this invention was evaluated on the same species as for the pre-emergence tests described above. In the PPI tests the following procedure, designed to simulate PPI application, was used.
(§2) A pre-prepared topsoil mixture (described above) was placed in a pot and compacted to a depth of 1.0 to 1.25 cm from the top of the pot. Seeds of each of several monocotyledonous and dicotyledonous annual plant species were placed on top of the soil. A sufficient quantity of soil to cover the seeds and level fill the pot was weighed into an open container. A known amount of the test compound was dissolved or suspended in an organic solvent and applied by spraying to this cover soil. The cover soil was thoroughly mixed to distribute the test compound throughout the cover soil, and was then applied as a cover layer over the seeds. Untreated soil was used as a cover layer for control pots. After treatment the plants were placed in a greenhouse where they received 0.64 cm of overhead irrigation. All subsequent watering consisted of a light overhead mist and/or subirrigation as needed for germination and growth. Tables 9 and 10 below relate to warm season plant species which were placed after pre-emergence treatment in a greenhouse with a 30/21° C. day/night temperature regime. Tables 11 and 12 below relates to cool season plant species placed after pre-emergence treatment in a greenhouse or growth chamber with an 18/13° C. day/night temperature regime. Only the compounds of Examples 1, 6, 8, 11, 13 and 15-20 were included in PPI tests.
(§3) Approximately 14 days after planting and treating, the plants were observed and herbicidal efficacy recorded as percent inhibition by comparison with untreated plants.

[2] = tested on: AGRRE (quackgrass (seedling)); assay: Pre-emergence herbicidal activity, cool season; format: in vivo, Elymus repens; conditions: GR80 = lowest tested rate (300, 100, 30, 10 g/ha) with 80% or greater inhibition; approx. 14 days after treating; 18/13° C.
Outline: (§4)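 Seeds sown in sterilised fertilised topsoil received surface-applied compound in 50:50 acetone/water, typically at 300, 100, 30 and 10 g/ha, then greenhouse-grown at 30/21° C (warm-season species) or 18/13° C (cool-season species). Percent inhibition versus untreated plants was scored at about 14 days, giving GR80; an asterisk marks activity short of 80% at the top rate.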

BROTE (downy brome) = assay: Pre-emergence herbicidal activity, cool season; format: in vivo, Bromus tectorum; conditions: GR80 = lowest tested rate (300, 100, 30, 10 g/ha) with 80% or greater inhibition; approx. 14 days after treating; 18/13° C.
Outline: as §4

CONAR (field bindweed) [3] = assay: Pre-emergence herbicidal activity, warm season; format: in vivo, Convolvulus arvensis; conditions: GR80 = lowest tested rate (300, 100, 30, 10 g/ha) with 80% or greater inhibition; approx. 14 days after treating; 30/21° C.
Outline: as §4

AVEFA (wild oat) = assay: Pre-emergence herbicidal activity, cool season; format: in vivo, Avena fatua; conditions: GR80 = lowest tested rate (300, 100, 30, 10 g/ha) with 80% or greater inhibition; approx. 14 days after treating; 18/13° C.
Outline: as §4

POROL (common purslane) = assay: Pre-plant incorporated (PPI) herbicidal activity, warm season; format: in vivo, Portulaca oleracea; conditions: GR80 = lowest tested rate with 80% or greater inhibition, approx. 14 days after treating, 30/21° C.
Experimental: as §1, §2, §3

CONAR (field bindweed) [4] = assay: as above; format: in vivo, Convolvulus arvensis; conditions: GR80 = lowest tested rate with 80% or greater inhibition, approx. 14 days after treating, 30/21° C.
Experimental: as §1, §2, §3

| Compound | Percent inhibition IPOSS ([1]; 100 g/ha) [%] | Percent inhibition IPOSS ([1]; 300 g/ha) [%] | Percent inhibition IPOSS ([1]; 900 g/ha) [%] | Pre-emergence activity (GR80) AGRRE [2] | Pre-emergence activity (GR80) BROTE (BROTE (downy brome)) | Pre-emergence activity (GR80) CONAR (CONAR (field bindweed) [3]) | Percent inhibition IPOSS ([1]; 30 g/ha) [%] | Pre-emergence activity (GR80) AVEFA (AVEFA (wild oat)) | PPI activity (GR80) POROL (POROL (common purslane)) [g/ha] | PPI activity (GR80) CONAR (CONAR (field bindweed) [4]) | inhibition at 30 g/ha ([1]; Ipomoea, 30 g/ha, read-out: Percent inhibition IPOSS) [%] | inhibition at 100 g/ha ([1]; Ipomoea, 100 g/ha, read-out: Percent inhibition IPOSS) [%] | inhibition at 300 g/ha ([1]; Ipomoea, 300 g/ha, read-out: Percent inhibition IPOSS) [%] | inhibition at 900 g/ha ([1]; Ipomoea, 900 g/ha, read-out: Percent inhibition IPOSS) [%] | Percent inhibition IPOSS ([1]; 10 g/ha) [%] |
| --- | --- | --- | --- | --- | --- | --- | --- | --- | --- | --- | --- | --- | --- | --- | --- |
| CCN(CC)C(=O)n1cnc(S(=O)(=O)C(F)(F)F)n1 [Example 2] | 20 | 100 | 95 | 100 g/ha | 300 g/ha | 300 g/ha |  |  |  |  |  |  |  |  |  |
| CCN(CC)C(=O)n1cnc(S(=O)(=O)C(F)(F)Cl)n1 [Example 3] | 50 | 100 | 80 |  | * (activity observed, at least at highest rate, but <80% inhibition) | 300 g/ha | 0 |  |  |  |  |  |  |  |  |
| CCN(CC)C(=O)n1cnc(S(=O)(=O)C(F)(F)C(F)(F)Br)n1 [Example 4] | 80 | 60 | 100 | 30 g/ha | 300 g/ha |  | 0 | 30 g/ha |  |  |  |  |  |  |  |
| CCN(CC)C(=O)n1cnc(S(=O)(=O)C(F)(F)C(=O)c2ccccc2)n1 [Example 6] |  |  |  | 300 g/ha |  |  |  | 300 g/ha | 300 | * (activity observed, at least at highest rate, but <80% inhibition) |  |  |  |  |  |
| CCSC(F)(F)S(=O)(=O)c1ncn(C(=O)N(CC)CC)n1 [Example 8, 1-(N,N-diethylcarbamoyl)-3-[difluoro(ethylthio)methylsulfonyl]-1,2,4-triazole] |  |  |  |  | * (activity observed, at least at highest rate, but <80% inhibition) | 100 g/ha |  | 300 g/ha | 100 | 300 g/ha | 0 | 70 | 90 | 100 |  |
| CCN(CC)C(=O)n1cnc(S(=O)(=O)C(F)(F)SC)n1 [Example 9] | 100 | 40 | 100 |  | 100 g/ha | 300 g/ha | 0 | 300 g/ha |  |  |  |  |  |  |  |
| CCN(CC)C(=O)n1cnc(S(=O)(=O)C(F)(F)SCc2ccccc2)n1 [Example 10] | 0 | 0 | 50 |  |  |  | 0 |  |  |  |  |  |  |  | 0 |
| CCN(CC)C(=O)n1cnc(S(=O)(=O)C(F)(F)SCC(=O)OC)n1 [Example 11] | 0 | 0 | 0 |  |  |  | 0 |  | 300 | 100 g/ha |  |  |  |  | 0 |
| CCN(CC)C(=O)n1cnc(S(=O)(=O)C(F)(F)SCCOC)n1 [Example 13] | 0 | 10 | 100 |  | 300 g/ha |  | 0 | 300 g/ha | 100 | * (activity observed, at least at highest rate, but <80% inhibition) |  |  |  |  | 0 |
| CCN(CC)C(=O)n1cnc(S(=O)(=O)C(F)(F)C(F)(F)SC)n1 [Example 14] |  |  |  | * (activity observed, at least at highest rate, but <80% inhibition) |  | * (activity observed, at least at highest rate, but <80% inhibition) |  | 300 g/ha |  |  |  |  |  |  |  |
| CCN(CC)C(=O)n1cnc(S(=O)(=O)C(F)(F)C(F)F)n1 [Example 16] | 0 | 0 | 50 | * (activity observed, at least at highest rate, but <80% inhibition) |  | 300 g/ha | 0 | 300 g/ha | 10 | 100 g/ha |  |  |  |  | 0 |
| C=CCC(F)(F)S(=O)(=O)c1ncn(C(=O)N(CC)CC)n1 [Example 17, 1-(N,N-diethylcarbamoyl)-3-[(1,1-difluoro-3-butenyl)sulfonyl]-1,2,4-triazole] |  |  |  |  | 100 g/ha |  |  | 100 g/ha | 30 | * (activity observed, at least at highest rate, but <80% inhibition) |  |  |  |  |  |
| C=C(C)CC(F)(F)S(=O)(=O)c1ncn(C(=O)N(CC)CC)n1 [Example 18] |  |  |  | 300 g/ha | 300 g/ha |  |  | * (activity observed, at least at highest rate, but <80% inhibition) | 100 | 100 g/ha |  |  |  |  |  |
| C=C(Br)CC(F)(F)S(=O)(=O)c1ncn(C(=O)N(CC)CC)n1 [Example 19] |  |  |  | * (activity observed, at least at highest rate, but <80% inhibition) | * (activity observed, at least at highest rate, but <80% inhibition) | * (activity observed, at least at highest rate, but <80% inhibition) |  | * (activity observed, at least at highest rate, but <80% inhibition) | 100 | 300 g/ha |  |  |  |  |  |
| C=C(CC(F)(F)S(=O)(=O)c1ncn(C(=O)N(CC)CC)n1)C[Si](C)(C)C [Example 20] |  |  |  |  |  | * (activity observed, at least at highest rate, but <80% inhibition) |  |  | 100 | * (activity observed, at least at highest rate, but <80% inhibition) |  |  |  |  |  |
